Tested on: neuropathic pain caused by oxaliplatin in rats
Assay: Randall-Selitto pain thresholds in rats given repeated intraperitoneal oxaliplatin (chemo-induced neuropathic pain model)
Description: A preclinical study in rats was carried out.
In order to mimic the clinical use as closely as possible, a series of 8 intraperitoneal injections of oxaliplatin were given every 3 to 4 days, as illustrated in FIG. 2. This model is well known in the literature and gives an account of chemo-induced neuropathic pain.
The pain thresholds were evaluated by means of a Randall-Selitto device by applying an increasing pressure to the paw of the rat until the animal lets out a cry. The corresponding weight in grams is then noted (the Y-axis in FIG. 2). Thus, the earlier the animal cries out, for a low weight, the more pain it has.

Compound | hypersensitivity to pain (pain threshold curve versus control group A) (rats given oxaliplatin 2 mg/kg, gas/O2 (50%-50%) inhaled for 1 hour with each administration) | pain thresholds (Randall-Selitto, weight at which the animal cries out) (group B: oxaliplatin 2 mg/kg, 8 intraperitoneal injections every 3 to 4 days, with N2/O2 (50%-50%) control gas for 1 hour, control group A 200 g) | persistence of hypersensitivity to pain after the final administration of oxaliplatin (group B, final administration on D25, still present on D42)
[Xe] [xenon] | no sign of hypersensitivity to pain |  | 
O=C1[O][Pt]2([NH][C@@H]3CCCC[C@H]3[NH]2)[O]C1=O [oxaliplatin] |  | approximately 150 g | more than 2 weeks

Reference: patent publication US20130095194A1 (L'Air Liquide, Société Anonyme pour I'Etude et …, priority 2011, published 2013)
